Measured values published in USRE40086E1, “Method for treating bacterial infection with novel 7-substituted-9-substituted amino 6-demethyl-6-deoxytetracyclines” (Wyeth Holdings Corporation, priority 1991, dated 2008).
Counter-ions that a name gives are not always drawn.

How the values were obtained:
[1] = test system: S. aureus UBMS 88-4 (Sensitive); experiment: MIC, agar dilution; assay type: cell-based; details: S. aureus UBMS 88-4; Table IA; unit assumed
[2] = test system: S. aureus UBMS 90-3 (Sensitive); experiment: MIC, agar dilution; assay type: cell-based; details: S. aureus UBMS 90-3; Table IA; unit assumed
S. aureus SMITH (sens) [3] = experiment: In vivo antibacterial evaluation, acute lethal infection in mice; details: Intraveneous
[4] = test system: TetM S30 extract, derivative of E. coli MRE600 containing the tetM determinant; experiment: E. coli in vitro transcription and protein translation, 35S-methionine incorporation (Table VIII)
[5] = test system: X. maltophilia NEMC 87210; experiment: MIC, agar dilution (Table IA); assay type: cell-based; details: unit assumed
E. coli ATCC 25922 = experiment: MIC, agar dilution; assay type: cell-based; details: E. coli ATCC 25922; Table IA; unit assumed
E. coli J3272 Tet sens. = experiment: MIC, agar dilution (Table IA); assay type: cell-based; details: unit assumed
E. coli MC4100 TetB = experiment: MIC, agar dilution (Table IA); assay type: cell-based; details: unit assumed
[6] = test system: S. aureus IVES 1983 (meth. resistant); experiment: MIC, agar dilution; assay type: cell-based; details: S. aureus IVES 1983; Table IA; unit assumed
E. coli J2175 = experiment: MIC, agar dilution (Table IA); assay type: cell-based; details: unit assumed
[7] = test system: S. aureus UBMS 90-2 (tetM); experiment: MIC, agar dilution; assay type: cell-based; details: S. aureus UBMS 90-2 TetM; Table IA; unit assumed
E. coli UBMS 89-1 (tetM) = experiment: MIC, agar dilution; assay type: cell-based; details: E. coli UBMS 89-1 TetM; Table IA; unit assumed
E. faecalis ATCC 29212 = experiment: MIC, agar dilution; assay type: cell-based; details: E. faecalis ATCC 29212; Table IA; unit assumed
[8] = test system: E. coli UBMS 89-2 (Sensitive); experiment: MIC, agar dilution; assay type: cell-based; details: E. coli UBMS 89-2 Tet Sens.; Table IA; unit assumed
S. aureus SMITH (sens) [9] = experiment: In vivo antibacterial evaluation, acute lethal infection in mice; details: Oral
From the text: In Vivo Antibacterial Evaluation (Table VII)

E. coli UBMS 90-4 (tetM) = experiment: MIC, agar dilution; assay type: cell-based; details: E. coli UBMS 90-4 TetM; Table IA; unit assumed
[10] = test system: S. aureus IVES 2943 (meth. resistant); experiment: MIC, agar dilution; assay type: cell-based; details: S. aureus IVES 2943; Table IA; unit assumed
E. coli #311 (MP) = experiment: MIC, agar dilution (Table IA); assay type: cell-based; details: unit assumed
E. coli J3272 TetC = experiment: MIC, agar dilution (Table IA); assay type: cell-based; details: unit assumed
[11] = test system: S. aureus UBMS 88-7 (tetK); experiment: MIC, agar dilution; assay type: cell-based; details: S. aureus UBMS 88-7 TetK; Table IA; unit assumed
[12] = test system: S. aureus Smith (Sensitive); experiment: MIC, agar dilution; assay type: cell-based; details: S. aureus SMITH (MP); Table IA; unit assumed
[13] = test system: S. aureus UBMS 88-5 (tetM); experiment: MIC, agar dilution; assay type: cell-based; details: S. aureus UBMS 88-5 TetM; Table IA; unit assumed
E. coli BAJ9003 = experiment: MIC, agar dilution (Table IA); assay type: cell-based; details: unit assumed
S. aureus NEMC 8769/89-4 = experiment: MIC, agar dilution (Table IA); assay type: cell-based; details: unit assumed
E. coli J3272 TetD = experiment: MIC, agar dilution (Table IA); assay type: cell-based; details: unit assumed
E. coli PRP1 TetA = experiment: MIC, agar dilution (Table IA); assay type: cell-based; details: unit assumed
[14] = test system: Wild Type S30 extract, E. coli strain MRE600 (tetracycline sensitive); experiment: E. coli in vitro transcription and protein translation, 35S-methionine incorporation (Table VIII)
[15] = test system: S. aureus UBMS 90-1 (tetM); experiment: MIC, agar dilution; assay type: cell-based; details: S. aureus UBMS 90-1 TetM; Table IA; unit assumed
E. coli UBMS 90-5 = experiment: MIC, agar dilution (Table IA); assay type: cell-based; details: unit assumed
S. mariescens FDOR 8733 = experiment: MIC, agar dilution (Table IA); assay type: cell-based; details: unit assumed
[16] = test system: Ps. acruginosa ATCC 27853; experiment: MIC, agar dilution (Table IA); assay type: cell-based; details: unit assumed
S. aureus ROSE (MP) = experiment: MIC, agar dilution (Table IA); assay type: cell-based; details: unit assumed
E. coli UBMS 88-1 (tetB) = experiment: MIC, agar dilution; assay type: cell-based; details: E. coli UBMS 88-1 TetB; Table IA; unit assumed
[17] = test system: S. haemolyticus AVAH 88-3; experiment: MIC, agar dilution; assay type: cell-based; details: S. hemolyticus AVHAH 88-3; Table IA; unit assumed
E. faecalis 12201 = experiment: MIC, agar dilution; assay type: cell-based; details: Enterococcus 12201; Table IA; unit assumed
[18] = test system: S. aureus ATCC 29213 (Sensitive); experiment: MIC, agar dilution; assay type: cell-based; details: S. aureus ATCC 29213; Table IA; unit assumed
[19] = test system: tetracycline-susceptible E. coli; experiment: Resumption of bacterial growth after washing out the antibiotic (reversibility of binding); assay type: cell-based; details: 30 minutes at growth inhibitory concentrations, then centrifugation and fresh medium
Protocol: The antibiotics are added to exponentially growing cultures of tetracycline-susceptible E. coli at growth inhibitory concentrations. After 30 minutes, excess antibiotic is removed from the bacteria by centrifugation and the organism is resuspended in fresh growth medium. The ability of bacteria to resume growth is monitored. […] This reflects the different binding characteristics of the drugs.

E. coli MC4100 Tet sens. = experiment: MIC, agar dilution (Table IA); assay type: cell-based; details: unit assumed

Row | Molecule | Antibacterial activity (MIC) [1] [µg/mL] | Antibacterial activity (MIC) [2] [µg/mL] | ED50 (S. aureus SMITH (sens) [3]) [mg/kg] | Antibacterial activity (MIC) [5] [µg/mL] | Antibacterial activity (MIC) (E. coli ATCC 25922) [µg/mL] | Antibacterial activity (MIC) (E. coli MC4100 TetB) [µg/mL] | Antibacterial activity (MIC) [6] [µg/mL] | Antibacterial activity (MIC) (E. coli J2175) [µg/mL] | Antibacterial activity (MIC) [7] [µg/mL] | Antibacterial activity (MIC) (E. coli UBMS 89-1 (tetM)) [µg/mL] | Antibacterial activity (MIC) (E. faecalis ATCC 29212) [µg/mL] | Antibacterial activity (MIC) [8] [µg/mL] | ED50 (S. aureus SMITH (sens) [9]) [mg/kg] | Antibacterial activity (MIC) (E. coli UBMS 90-4 (tetM)) [µg/mL] | Antibacterial activity (MIC) [10] [µg/mL] | Antibacterial activity (MIC) (E. coli #311 (MP)) [µg/mL] | Antibacterial activity (MIC) (E. coli J3272 TetC) [µg/mL] | Antibacterial activity (MIC) [11] [µg/mL] | Antibacterial activity (MIC) [12] [µg/mL] | Antibacterial activity (MIC) [13] [µg/mL] | also measured
1 | CCCNCC(=O)Nc1cc(N(C)C)c2c(c1O)C(=O)C1=C(O)C3(O)C(=O)C(C(N)=O)=C(O)C(N(C)C)C3CC1C2.Cl.Cl (stereo not drawn) [WW, [4S-(4alpha,12aalpha)]-4,7-bis(dimethylamino)-1,4,4a,5,5a,6,11,12a-octahydro-3,10,12,12a-tetra-hydroxy-1,11-dioxo-9-[[(propylamino)acetyl]amino]-2-naphthacenecarboxamide dihydrochloride] | 0.25 | 0.12 | 0.82 | 0.5 | 0.25 | 0.25 | 2 | 0.25 | 0.25 | 0.25 | 0.25 | 0.25 | >16 | 0.25 | 2 | 0.25 | 0.25 | 1 | 0.12 | 0.25 | % INHIBITION TetM S30 ([4]; 0.06 mg/ml): 88%; % INHIBITION TetM S30 ([4]; 0.2 mg/ml): 97%; % INHIBITION TetM S30 ([4]; 1.0 mg/ml): 98%; Antibacterial activity (MIC) (E. coli J3272 Tet sens.): 0.25 µg/mL; Antibacterial activity (MIC) (E. coli BAJ9003): 0.06 µg/mL; Antibacterial activity (MIC) (S. aureus NEMC 8769/89-4): 0.06 µg/mL; Antibacterial activity (MIC) (E. coli J3272 TetD): 0.12 µg/mL; Antibacterial activity (MIC) (E. coli PRP1 TetA): 1 µg/mL; % INHIBITION Wild Type S30 ([14]; 0.06 mg/ml): 93%; % INHIBITION Wild Type S30 ([14]; 0.2 mg/ml): 99%; % INHIBITION Wild Type S30 ([14]; 1.0 mg/ml): 99%; Antibacterial activity (MIC) [15]: 0.12 µg/mL; Antibacterial activity (MIC) (E. coli UBMS 90-5): 0.25 µg/mL; Antibacterial activity (MIC) (S. mariescens FDOR 8733): 2 µg/mL; Antibacterial activity (MIC) [16]: 8 µg/mL; Antibacterial activity (MIC) (S. aureus ROSE (MP)): 2 µg/mL; Antibacterial activity (MIC) (E. coli UBMS 88-1 (tetB)): 0.25 µg/mL; Antibacterial activity (MIC) [17]: 0.25 µg/mL; Antibacterial activity (MIC) (E. faecalis 12201): 0.12 µg/mL; Antibacterial activity (MIC) [18]: 0.25 µg/mL
2 | CC(C(=O)Nc1cc(N(C)C)c2c(c1O)C(=O)C1=C(O)[C@]3(O)C(=O)C(C(N)=O)=C(O)[C@@H](N(C)C)C3CC1C2)N(C)C.Cl.Cl (some centres unmarked) [XX] | 0.25 | 0.25 | 0.5 to 1 | 0.5 | 0.5 | 1 | 1 | 0.5 | 0.25 | 0.12 | 0.12 | 0.5 | 8 to 16 | 0.5 | 1 | 0.5 | 1 | 1 | 0.25 | 0.25 | % INHIBITION TetM S30 ([4]; 0.06 mg/ml): 78%; % INHIBITION TetM S30 ([4]; 0.2 mg/ml): 89%; % INHIBITION TetM S30 ([4]; 1.0 mg/ml): 97%; Antibacterial activity (MIC) (E. coli J3272 Tet sens.): 0.5 µg/mL; Antibacterial activity (MIC) (E. coli BAJ9003): 0.06 µg/mL; Antibacterial activity (MIC) (S. aureus NEMC 8769/89-4): 0.12 µg/mL; Antibacterial activity (MIC) (E. coli J3272 TetD): 0.25 µg/mL; Antibacterial activity (MIC) (E. coli PRP1 TetA): 1 µg/mL; % INHIBITION Wild Type S30 ([14]; 0.06 mg/ml): 85%; % INHIBITION Wild Type S30 ([14]; 0.2 mg/ml): 96%; % INHIBITION Wild Type S30 ([14]; 1.0 mg/ml): 98%; Antibacterial activity (MIC) [15]: 0.25 µg/mL; Antibacterial activity (MIC) (E. coli UBMS 90-5): 0.5 µg/mL; Antibacterial activity (MIC) (S. mariescens FDOR 8733): 4 µg/mL; Antibacterial activity (MIC) [16]: 32 µg/mL; Antibacterial activity (MIC) (S. aureus ROSE (MP)): 1 µg/mL; Antibacterial activity (MIC) (E. coli UBMS 88-1 (tetB)): 0.5 µg/mL; Antibacterial activity (MIC) [17]: 0.5 µg/mL; Antibacterial activity (MIC) (E. faecalis 12201): 0.12 µg/mL; Antibacterial activity (MIC) [18]: 0.25 µg/mL
3 | polymyxin [reference compound] | – | – | – | – | – | – | – | – | – | – | – | – | – | – | – | – | – | – | – | – | ability of bacteria to resume growth after excess antibiotic is removed by washing [19]: continues to prevent bacterial growth even when excess antibiotic is removed
4 | CN(C)c1cc(NC=O)c(O)c2c1CC1CC3C(N(C)C)C(O)=C(C(N)=O)C(=O)C3(O)C(O)=C1C2=O (centres unmarked) | – | – | – | – | – | – | – | – | – | – | – | – | – | – | – | – | – | – | – | – | ability of bacteria to resume growth after excess antibiotic is removed by washing [19]: bacterial growth resumed when the compound was removed
5 | CCCCCCNCC(=O)Nc1cc(N(C)C)c2c(c1O)C(=O)C1=C(O)[C@]3(O)C(=O)C(C(N)=O)=C(O)[C@@H](N(C)C)C3CC1C2 (stereo partly drawn) [BBB, [4S-(4alpha,12aalpha)]-4,7-Bis(dimethylamino)-9-[[(hexylamino)acetyl]amino]-1,4,4a,5,5a,6,11,12a-octahydro-3,10,12,12a-tetrahydroxy-1,11-dioxo-2-naphthacenecarboxamide dihydrochloride] | 0.25 | 0.06 | 1.8 | 4 | 0.12 | 0.5 | 4 | 0.25 | 0.25 | 0.25 | 0.12 | 0.25 | 4 to 8 | 0.25 | 4 | 0.5 | 0.5 | 2 | 0.12 | 0.5 | Antibacterial activity (MIC) (E. coli BAJ9003): 0.06 µg/mL; Antibacterial activity (MIC) (E. coli MC4100 Tet sens.): 0.25 µg/mL; Antibacterial activity (MIC) (S. aureus NEMC 8769/89-4): 0.06 µg/mL; Antibacterial activity (MIC) (E. coli J3272 TetD): 0.12 µg/mL; Antibacterial activity (MIC) (E. coli PRP1 TetA): 0.5 µg/mL; Antibacterial activity (MIC) [15]: 0.25 µg/mL; Antibacterial activity (MIC) (E. coli UBMS 90-5): 0.25 µg/mL; Antibacterial activity (MIC) (S. mariescens FDOR 8733): 4 µg/mL; Antibacterial activity (MIC) [16]: 16 µg/mL; Antibacterial activity (MIC) (S. aureus ROSE (MP)): 16 µg/mL; Antibacterial activity (MIC) (E. coli UBMS 88-1 (tetB)): 0.5 µg/mL; Antibacterial activity (MIC) [17]: 0.5 µg/mL; Antibacterial activity (MIC) (E. faecalis 12201): 0.25 µg/mL; Antibacterial activity (MIC) [18]: 0.25 µg/mL
